Reference: patent publication US20150141411A1, “SUBSTITUTED 3,4-DIHYDRO-2H-PYRIDO[1,2-A]PYRAZINE-1,6-DIONE DERIVATIVES USEFUL FOR THE TREATMENT OF (INTER ALIA) ALZHEIMER'S DISEASE” (Janssen Pharmaceuticals, Inc., priority 2012, published 2015)
Structures can show the parent of a compound that is named as a salt.

Legend:
[1] = target: T1, γ-secretase (Homo sapiens, UniProt P49768); experiment: Screening for γ-secretase-modulating activity: Aβtotal in supernatant of SKNBE2 cells carrying hAPP 695 wild type (Alphalisa); assay type: cell-based; settings: SKNBE2 human neuroblastoma cells carrying hAPP 695 wild type, overnight incubation, Aβtotal in cell supernatant
T1 construct: endogenous in cells; host or cells: SKNBE2 human neuroblastoma cells (carrying hAPP 695 wild type as substrate)
Experimental: (§1) Screening was carried out using SKNBE2 human neuroblastoma cells carrying the hAPP 695—wild type, grown in Dulbecco's Modified Eagle's Medium/Nutrient mixture F-12 (DMEM/NUT-mix F-12) (HAM) provided by Invitrogen (cat no. 10371-029) containing 5% Serum/Fe supplemented with 1% non-essential amino acids, 1-glutamine 2 mM, Hepes 15 mM, penicillin 50 U/ml (units/ml) en streptomycin 50 μg/ml. Cells were grown to near confluency.
(§2) The screening was performed using a modification of the assay as described in Citron et al (1997) Nature Medicine 3: 67. Briefly, cells were plated in a 384-well plate at 10^4 cells/well in Ultraculture (Lonza, BE12-725F) supplemented with 1% glutamine (Invitrogen, 25030-024), 1% non-essential amino acid (NEAA), penicillin 50 U/ml en streptomycin 50 μg/ml in the presence of test compound at different test concentrations. The cell/compound mixture was incubated overnight at 37° C., 5% CO2. The next day the media were assayed by two sandwich immuno-assays, for Aβ42 and Aβ total.
(§3) Aβtotal and Aβ42 concentrations were quantified in the cell supernatant using the Aphalisa technology (Perkin Elmer). Alphalisa is a sandwich assay using biotinylated antibody attached to streptavidin coated donorbeads and antibody conjugated to acceptor beads. In the presence of antigen, the beads come into close proximity. The excitation of the donor beads provokes the release of singlet oxygen molecules that trigger a cascade of energy transfer in the acceptor beads, resulting in light emission. To quantify the amount of Aβ42 in the cell supernatant, monoclonal antibody specific to the C-terminus of Aβ42 (JRF/cAβ42/26) was coupled to the receptor beads and biotinylated antibody specific to the N-terminus of Aβ (JRF/AβN/25) was used to react with the donor beads. To quantify the amount of Aβtotal in the cell supernatant, monoclonal antibody specific to the N-terminus of Aβ (JRF/AβN/25) was coupled to the receptor beads and biotinylated antibody specific to the mid region of Aβ (biotinylated 4G8) was used to react with the donor beads.
(§4) To obtain the values reported in Table 3, the data are calculated as percentage of the maximum amount of amyloid Beta 42 measured in the absence of the test compound. The sigmoidal dose response curves were analyzed using non-linear regression analysis with percentage of the control plotted against the log concentration of the compound. A 4-parameter equation was used to determine the IC50.

[2] = target: T1, γ-secretase; experiment: Screening for γ-secretase-modulating activity: Aβ42 in supernatant of SKNBE2 cells carrying hAPP 695 wild type (Alphalisa); assay type: cell-based; settings: SKNBE2 human neuroblastoma cells carrying hAPP 695 wild type, overnight incubation, Aβ42 in cell supernatant
Experimental: as §1, §2, §3, §4

| melting point | IC50 [1] | IC50 [2] | Structure (SMILES) |
| --- | --- | --- | --- |
| 184.6 °C | – | – | Cc1cn(-c2ccc3n(c2=O)C[C@@H](C)N(Cc2cccc(Cl)c2)C3=O)cn1 (as salt: HCl) [compound 24] |
| 208.3 °C | – | – | Cc1cn(-c2ccc3n(c2=O)C[C@@H](C)N(Cc2cc(C(F)(F)F)ccc2C)C3=O)cn1 (as salt: HCl) [compound 72] |
| 235.1 °C | – | – | Cc1cn(-c2ccc3n(c2=O)C[C@@H](C)N(Cc2cc(N4CCC(C)CC4)ccc2Cl)C3=O)cn1 (as salt: HCl) [compound 80] |
| 160.6 °C | – | – | Cc1cn(-c2ccc3n(c2=O)C[C@@H](C)N(Cc2cc(N4CCC(C(F)(F)F)CC4)ccc2Cl)C3=O)cn1 (as salt: HCl) [compound 81] |
| 233.6 °C | – | – | Cc1cn(-c2ccc3n(c2=O)C[C@@H](C)N(Cc2cc(N4CCCC4)ccc2Cl)C3=O)cn1 (as salt: HCl) [compound 82] |
| 185.3 °C | – | – | Cc1cn(-c2ccc3n(c2=O)C[C@@H](C)N(Cc2cc(N4CCCCC4)cc(C(F)(F)F)c2)C3=O)cn1 (as salt: HCl) [compound 86] |
| 126.9 °C | – | – | Cc1cn(-c2ccc3n(c2=O)C[C@@H](C)N(Cc2ccc(C)c(-n4cccn4)c2)C3=O)cn1 (as salt: HCl) [compound 114] |
| 116.9 °C | – | – | Cc1cn(-c2ccc3n(c2=O)C[C@@H](C)N(Cc2cc(OC(C)C)nc(C(F)(F)F)c2)C3=O)cn1 (as salt: HCl) [compound 128] |
| 136 °C | – | – | Cc1cn(-c2ccc3n(c2=O)C[C@@H](C)N(Cc2cc(CC(F)(F)F)cc(C(F)(F)F)c2)C3=O)cn1 (as salt: HCl) [compound 134] |
| 195.9 °C | – | – | Cc1cn(-c2ccc3n(c2=O)C[C@@H](C)N(Cc2cc(F)cc(OC(F)(F)F)c2)C3=O)cn1 (as salt: HCl) [compound 139] |
| 115.2 °C | – | – | Cc1cn(-c2ccc3n(c2=O)C[C@@H](C)N(Cc2cc(OC(F)(F)F)cc(C(F)(F)F)c2)C3=O)cn1 (as salt: HCl) [compound 140] |
| 204.5 °C | – | – | Cc1cn(-c2ccc3n(c2=O)C[C@@H](C)N(Cc2cc(Br)cc(C(F)(F)F)c2)C3=O)cn1 (as salt: HCl) [compound 145] |
| 103.1 °C | – | – | Cc1cn(-c2ccc3n(c2=O)C[C@@H](C)N(Cc2cc(OC(C)C)c(Cl)cc2F)C3=O)cn1 (as salt: HCl) [compound 163] |
| 137.5 °C | – | – | Cc1cn(-c2ccc3n(c2=O)C[C@@H](C)N(Cc2cc(OCC(F)(F)F)cc(C(F)(F)F)c2)C3=O)cn1 (as salt: HCl) [compound 166] |
| 130.6 °C | – | – | Cc1cn(-c2ccc3n(c2=O)C[C@@H](C)N(Cc2ccc(C(F)(F)F)c(N4CCCCC4)c2)C3=O)cn1 (as salt: HCl) [compound 171] |
| 218 °C | – | – | Cc1cn(-c2ccc3n(c2=O)C[C@@H](C)N(CCc2cccc(Cl)c2Cl)C3=O)cn1 (as salt: HCl) [compound 231] |
| 190 °C | – | – | Cc1cn(-c2ccc3n(c2=O)C[C@@H](C)N(Cc2cn(C)c4ccc(OC(F)(F)F)cc24)C3=O)cn1 (as salt: HCl) [compound 253] |
| 213.2 °C | – | – | Cc1cn(-c2ccc3n(c2=O)C[C@@H](C)N(C(C)c2cc(CC4CC4)cc(C(F)(F)F)c2)C3=O)cn1 (single isomer, unassigned) (as salt: HCl) [compound 135] |
| 146.2 °C | – | – | CCC(c1cc(OC)cc(C(F)(F)F)c1)N1C(=O)c2ccc(-n3cnc(C)c3)c(=O)n2C[C@H]1C (single isomer, unassigned) (as salt: HCl) [compound 141] |
| 141.4 °C | – | – | CCC(c1cc(OC)cc(C(F)(F)F)c1)N1C(=O)c2ccc(-n3cnc(C)c3)c(=O)n2C[C@H]1C (single isomer, unassigned) (as salt: HCl) [compound 142] |
| 229.3 °C | – | – | CCOc1cc(C(C)N2C(=O)c3ccc(-n4cnc(C)c4)c(=O)n3C[C@H]2C)cc(C(F)(F)F)c1 (single isomer, unassigned) (as salt: HCl) [compound 143] |
| 194.4 °C | – | – | CCOc1cc(C(C)N2C(=O)c3ccc(-n4cnc(C)c4)c(=O)n3C[C@H]2C)cc(C(F)(F)F)c1 (single isomer, unassigned) (as salt: HCl) [compound 144] |
| 232.9 °C | – | – | Cc1cn(-c2ccc3n(c2=O)C[C@@H](C)N(C(C)c2cccc(OC(F)(F)F)c2)C3=O)cn1 (single isomer, unassigned) (as salt: HCl) [compound 147] |

| melting point | IC50 [1] | IC50 [2] | Structure (SMILES) |
| --- | --- | --- | --- |
| 122 °C | – | – | COc1cc(C(C)N2C(=O)c3ccc(-n4cnc(C)c4)c(=O)n3C[C@H]2C)cc(C(F)(F)F)c1 (single isomer, unassigned) (as salt: HCl) [compound 149] |
| 206.8 °C | > 10000 nM | 4470 nM | Cc1cn(-c2ccc3n(c2=O)CCN(C(C)c2ccc(Cl)c(Cl)c2)C3=O)cn1 (single isomer, unassigned) [9a] |
| – | 9780 nM | 20 nM | Cc1cn(-c2ccc3n(c2=O)CC(C)N(Cc2cn(-c4ccccc4)c4cc(Br)ccc24)C3=O)cn1 (stereo not shown) [compound 199] |
| – | > 10000 nM | 120 nM | Cc1cn(-c2ccc3n(c2=O)CC(C)N(C2CCc4ccc(C(F)(F)F)cc42)C3=O)cn1 (stereo not shown) [compound 204] |
| – | > 10000 nM | 240 nM | Cc1cn(-c2ccc3n(c2=O)CC(C)N(C2CCc4ccc(C(F)(F)F)cc42)C3=O)cn1 (stereo not shown) [compound 205] |
| – | > 10000 nM | 60 nM | COc1ccc2c(c1)c(CN1C(=O)c3ccc(-n4cnc(C)c4)c(=O)n3CC1C)cn2C(C)C (stereo not shown) [compound 222] |
| – | > 10000 nM | 20 nM | CCn1cc(CN2C(=O)c3ccc(-n4cnc(C)c4)c(=O)n3CC2C)c2ccc(C(F)(F)F)cc21 (stereo not shown) [compound 225] |
| – | 2190 nM | 10 nM | CCn1cc(CN2C(=O)c3ccc(-n4cnc(C)c4)c(=O)n3C[C@H]2C)c2cc(C(F)(F)F)ccc21 [compound 227] |
| – | > 10000 nM | 260 nM | Cc1cn(-c2ccc3n(c2=O)C[C@@H](C)N(CCc2cccc(Cl)c2Cl)C3=O)cn1 [compound 231] |
| – | 4000 nM | 9 nM | Cc1cn(-c2ccc3n(c2=O)C[C@@H](C)N(Cc2cn(C)c4cc(F)c(C(F)(F)F)cc24)C3=O)cn1 [compound 238] |
| – | 4000 nM | 6 nM | Cc1cn(-c2ccc3n(c2=O)C[C@@H](C)N(Cc2cn(C)c4c(F)cc(C(F)(F)F)cc24)C3=O)cn1 [compound 241] |
| – | > 10000 nM | 260 nM | Cc1cn(-c2ccc3n(c2=O)C[C@@H](C)N(Cc2cn(C)c4cc(F)ccc24)C3=O)cn1 [compound 242] |
| – | 7000 nM | 20 nM | Cc1cn(-c2ccc3n(c2=O)C[C@@H](C)N(Cc2cn(C)c4ccc(C5CC5)cc24)C3=O)cn1 [compound 246] |
| – | 6000 nM | 10 nM | CCn1cc(CN2C(=O)c3ccc(-n4cnc(C)c4)c(=O)n3C[C@H]2C)c2cc(C3CC3)ccc21 [compound 247] |
| – | > 10000 nM | 50 nM | CCn1cc(CN2C(=O)c3ccc(-n4cnc(C)c4)c(=O)n3C[C@H]2C)c2cc(C)ccc21 [compound 250] |
| – | 5000 nM | 10 nM | Cc1cn(-c2ccc3n(c2=O)C[C@@H](C)N(Cc2c[nH]c4ccc(OC(F)(F)F)cc24)C3=O)cn1 [compound 252] |
| – | 5000 nM | 9 nM | Cc1cn(-c2ccc3n(c2=O)C[C@@H](C)N(Cc2cn(C)c4ccc(OC(F)(F)F)cc24)C3=O)cn1 [compound 253] |
| – | > 10000 nM | 40 nM | Cc1cn(-c2ccc3n(c2=O)C[C@@H](C)N(Cc2c[nH]c4c(C(F)(F)F)cc(F)cc24)C3=O)cn1 [compound 257] |
| – | 9000 nM | 20 nM | Cc1cn(-c2ccc3n(c2=O)C[C@@H](C)N(Cc2cn(C)c4cc(C(F)(F)F)c(F)cc24)C3=O)cn1 [compound 258] |
| 208 °C | – | 30 nM | Cc1cn(-c2ccc3n(c2=O)CCN(Cc2c[nH]c4c(Cl)cc(Cl)cc24)C3=O)cn1 [compound 260] |
| – | > 10000 nM | 60 nM | Cc1cn(-c2ccc3n(c2=O)C[C@@H](C)N(Cc2cn(C)c4c(C(F)(F)F)cc(F)cc24)C3=O)cn1 [compound 261] |
| – | > 10000 nM | 20 nM | Cc1ccc2c(c1)c(CN1C(=O)c3ccc(-n4cnc(C)c4)c(=O)n3C[C@H]1C)cn2CC(F)(F)F [compound 262] |
